The target of data set [1] is T1, ApaH (bis(5′‐nucleosyl)‐tetraphosphatase) (Escherichia coli, UniProt P05637).
T1 sequence (P05637 1-280): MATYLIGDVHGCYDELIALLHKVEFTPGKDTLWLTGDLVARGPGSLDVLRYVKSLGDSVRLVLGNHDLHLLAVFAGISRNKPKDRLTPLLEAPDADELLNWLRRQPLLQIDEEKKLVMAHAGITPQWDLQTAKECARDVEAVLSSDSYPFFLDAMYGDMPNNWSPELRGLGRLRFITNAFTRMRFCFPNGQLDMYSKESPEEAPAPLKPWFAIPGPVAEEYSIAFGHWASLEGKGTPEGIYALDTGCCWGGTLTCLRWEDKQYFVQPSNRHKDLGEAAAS
The data set is described as follows: inhibition of Ap4A hydrolysis by ApaH; pGpp is also the product of pppGpp cleavage. It counts as biochemical.

Data set [2] addresses T1, ApaH (bis(5′‐nucleosyl)‐tetraphosphatase). The data set is described as follows: LC-MS assay of Ap4A hydrolysis by […] ApaH. It counts as biochemical.
Data set [3] shares this target. The data set is described as follows: LC-MS assay of Ap4A hydrolysis by […] ApaH; pppGpp is also hydrolysed to pGpp (KM […]). It counts as biochemical.
Substrate in the data set “purified protein”: Nc1nc2c(ncn2[C@@H]2O[C@H](COP(=O)(O)OP(=O)(O)OP(=O)(O)O)[C@@H](O)[C@H]2O)c(=O)[nH]1
In words: purified protein. To be noted: Co2+. It counts as biochemical, Escherichia coli.

These results are taken from PMC9310846, “Photoaffinity Capture Compounds to Profile the Magic Spot Nucleotide Interactomes” (Angewandte Chemie (International Ed. in English), 2022).

`Nc1nc2c(ncn2[C@@H]2O[C@H](COP(=O)(O)O)[C@@H](OP(=O)(O)OP(=O)(O)O)[C@H]2O)c(=O)[nH]1` [pGpp] had a half-maximal inhibitory concentration (IC50) in data set [1] of 190 ± 30 µM.

In data set [2], `Nc1nc2c(ncn2[C@@H]2O[C@H](COP(=O)(O)OP(=O)(O)O)[C@@H](OP(=O)(O)OP(=O)(O)O)[C@H]2O)c(=O)[nH]1` [ppGpp] came in with an IC50 of 21 ± 7 µM. Turning to `Nc1nc2c(ncn2[C@@H]2O[C@H](COP(=O)(O)OP(=O)(O)OP(=O)(O)O)[C@@H](OP(=O)(O)OP(=O)(O)O)[C@H]2O)c(=O)[nH]1` [pppGpp], the IC50 in data set [3] came out at 8 ± 3 µM.

B1: ApaH (bis(5′‐nucleosyl)‐tetraphosphatase) (Escherichia coli K-12) (protein)
chain: T1 sequence (P05637 1-280)
On to B1, for which the Km in the data set “purified protein” is 13 ± 5 µM.
